In patent publication US9827189B2, “Stable parenteral DNJ compositions” (AMICUS THERAPEUTICS, INC., priority 2013, dated 2017):
“Also recorded” adds a separate entry of the source. Structures can show the parent of a compound that is named as a salt.

Key:
[1] = Stability and integrity of 1-DNJ-HCl in buffer solutions at 60° C. by NP-HPLC (UV and CAD) and discoloration; type: physicochemical
Method: 1-DNJ-HCl was dissolved in sodium phosphate buffer. 1-DNJ-HCl concentration was 60 mg/mL; sodium phosphate buffer concentration was 100 mM at pH 4.89. The formulation was stored at 60° C. for 4 days. 1-DNJ-HCl solution in water was used as a control. Reaction rate for small molecules such as 1-DNJ-HCl generally follows Arrhenius equation where reaction rate nearly doubles for every 10° C. increase in the temperature. Thus, under this model, the reaction rate at 60° C. would be 2^5 or 32 times the reaction rate at 10° C. Therefore during 4 days at 60° C. 1-DNJ-HCl would degrade by approximately the same percentage as during 128 days (4*32) at 10° C. The stability of 1-DNJ-HCl was measured by normal phase high performance liquid chromatography (NP-HPLC). 1-DNJ-HCl was recorded by UV chromatograms and by Charged Aerosol Detector (CAD) chromatograms. Mobile phase consisted of ACN/30 mM Ammonium Acetate (90/10, v/v). The flow rate was 1.0 ml/min with 5 μl injection at 400° C. UV absorbance was measured at 220 nm CAD detector settings were 35.0 psi, Gain: 100 pA. 1-DNJ-HCl was dissolved in sodium acetate buffer. The 1-DNJ-HCl concentration was 60 mg/mL; sodium acetate buffer concentration was 50 mM at pH 5.5. The formulation was stored at 60° C. for 4 days. 1-DNJ-HCl solution in water was used as control. Reaction rate for small molecules such as 1-DNJ-HCl generally follows the Arrhenius equation, in which the reaction rate nearly doubles for every 10°K increase in the temperature. Thus the reaction rate, under this model, at 60° C. would be 2^5 or 32 times the reaction rate at 10° C. Therefore during 4 days at 60° C. 1-DNJ-HCl would degrade by approximately same percentage as during 128 days at 10° C. The stability of 1-DNJ-HCl was measured by NP-HPLC. Presence of 1-DNJ-HCl was recorded by UV absorbance detector and by Charged Aerosol Detector. Mobile phase consisted of ACN/30 mM Ammonium Acetate (90/10, v/v). The flow rate was 1.0 ml/min with 5 μl injection at 400 C. UV absorbance was measured at 220 nm. CAD detector settings were 35.0 psi, Gain: 100 pA. 1-DNJ-HCl was dissolved in sodium citrate buffer that further includes EDTA. 1-DNJ-HCl concentration was 60 mg/mL; sodium citrate buffer concentration was 50 mM at pH 4.6. The EDTA concentration was 0.05% w/v. Some samples were stored under the nitrogen atmosphere (essentially 100% nitrogen) while others were stored under air. The formulation was stored at 60° C. for 8 days. Stability of 1-DNJ-HCl was measured by NP-HPLC. Presence of 1-DNJ-HCl was recorded by UV absorbance detector and by Charged Aerosol Detector. Mobile phase consisted of ACN/30 mM Ammonium Acetate (90/10, v/v). The flow rate was 1.0 ml/min with 5 μl injection at 400 C. UV absorbance was measured at 220 nm. CAD detector settings were 35.0 psi, Gain: 100 pA. 1-DNJ-HCl was dissolved in sodium citrate buffer. 1-DNJ-HCl concentration was 60 mg/mL; sodium citrate buffer concentration was 50 mM at pH 4.7. The formulation was stored at 60° C. for 8 days. 1-DNJ-HCl solution in water was used as control. Stability of 1-DNJ-HCl was measured by NP-HPLC. Presence of 1-DNJ-HCl was recorded by UV absorbance detector and by Charged Aerosol Detector. Mobile phase consisted of ACN/30 mM Ammonium Acetate (90/10, v/v). The flow rate was 1.0 ml/min with 5 μl injection at 400 C. UV absorbance was measured at 220 nm. CAD detector settings were 35.0 psi, Gain: 100 pA. 1-DNJ-HCl was dissolved in sodium citrate buffer. 1-DNJ-HCl concentration was 60 mg/mL; sodium citrate buffer concentration was 50 mM at pH 5.0. The formulation was stored at 60° C. for 17 days. The samples were stored under the nitrogen atmosphere (essentially 100% nitrogen). 1-DNJ-HCl solution in water was used as control. Reaction rate for small molecules such as 1-DNJ-HCl generally follows Arrhenius equation where reaction rate nearly doubles for every 10°K increase in the temperature. Thus reaction rate at 60° C. would be 2^5 or 32 times the reaction rate at 10° C. Therefore during 17 days at 60° C. […]

[2] = tested on: cynomolgus monkey whole blood; assay: Hemolytic potential in cynomolgus monkey whole blood; type: cell-based; conditions: 37 ° C. 30 minutes
Method: 1-DNJ-HCl was dissolved in sodium citrate buffer. 1-DNJ-HCl concentration was 30 mg/mL (resulting free 1-DNJ concentration was 25 mg/mL); sodium citrate buffer concentration was 50 mM at pH 5.0. 1-DNJ-HCl formulation was added to whole blood samples of male human, rat, and cynomolgus monkey. […]. Buffer served as a negative control, while Triton-X 100 (Lysing agent) served as a positive control. Additionally blood sample without any additions was used as a negative control. The samples were stored at 4° C. Blood samples were incubated at 37 ° C. for 30 minutes with the 1-DNJ-HCl formulation, after which the samples were centrifuged. The amount of hemoglobin in the supernatant from each centrifuged sample was measured using a commercially available hemoglobin assay kit (BioAssay Systems, QuantiChrom™ Hemoglobin Assay Kit) and the Tecan microplate reader.

[3] = 60 mg/mL in 50 mM sodium acetate buffer pH 5.5, 60° C., 4 days, hydrochloride
[4] = 60 mg/mL in 50 mM sodium citrate buffer pH 4.6, EDTA 0.05% w/v, nitrogen atmosphere, 60° C., 8 days
[5] = 60 mg/mL in 50 mM sodium citrate buffer pH 4.6, EDTA 0.05% w/v, stored under air, 60° C., 8 days
[6] = 60 mg/mL in 100 mM sodium phosphate buffer pH 4.89, 60° C., 4 days
[7] = 60 mg/mL in 100 mM sodium phosphate buffer pH 4.89, 60° C., 4 days, hydrochloride
[8] = control 1-DNJ-HCl aqueous solution, 60° C., 4 days
[9] = control 1-DNJ-HCl aqueous solution, 60° C., 8 days
[10] = control 1-DNJ-HCl aqueous solution, 60° C., 17 days
[11] = sodium citrate buffer, summary of the Examples

With `OC[C@H]1NC[C@H](O)[C@@H](O)[C@@H]1O` [1-DNJ-HCl, 1-deoxynojirimycin hydrochloride] the “Presence of 1-DNJ-HCl (NP-HPLC)” value ([1]; 60 mg/mL in 50 mM sodium acetate buffer pH 5.5, 60° C., 4 days) was “still present”, the Discoloration [1, 3] was “discoloration of the acetate buffer solution was observed; also recorded: resulted in discoloration” and the “New compounds (UV and CAD chromatograms)” value [1, 3] was “detected presence of new compounds; also recorded: presence of additional compounds”. For the same compound, the “Presence of 1-DNJ-HCl (NP-HPLC)” value ([1]; 60 mg/mL in 50 mM sodium citrate buffer pH 4.6, EDTA 0.05% w/v, 60° C., 8 days) was “still present”, the Discoloration [1, 4] was “remained clear with no visible discoloration” and the “New compounds (UV and CAD chromatograms)” value [1, 4] was “No new compounds were detected”. For the same compound, the Discoloration [1, 5] was “slight discoloration”, the “New compounds (UV and CAD chromatograms)” value [1, 5] was “showed presence of new compounds” and the “Presence of 1-DNJ-HCl (NP-HPLC)” value ([1]; 60 mg/mL in 50 mM sodium citrate buffer pH 4.7, 60° C., 8 days) was “still present”. For the same compound, the “Presence of 1-DNJ-HCl (NP-HPLC)” value ([1]; 60 mg/mL in 50 mM sodium citrate buffer pH 5.0, nitrogen atmosphere, 60° C., 17 days) was “still present”, the “Presence of 1-DNJ-HCl (NP-HPLC)” value [1, 6] was “still present” and the Stability [1, 6] was “not stable”. The Discoloration [1, 7] was “discoloration of the phosphate buffer solution was observed; also recorded: resulted in discoloration”, the “New compounds (UV and CAD chromatograms)” value [1, 7] was “detected presence of new compounds; also recorded: presence of additional compounds” and the Appearance of solution [1, 8] was “remainded clear”. The “New compounds (UV and CAD chromatograms)” value [1, 8] was “No new compounds were detected”, the Discoloration [1, 9] was “No discoloration was observed” and the “New compounds (UV and CAD chromatograms)” value [1, 9] was “No new compounds were detected”. The Discoloration [1, 10] was “No discoloration was observed”, the “New compounds (UV and CAD chromatograms)” value [1, 10] was “No new compounds were detected” and the “Relative stability among buffers” value ([1]; sodium citrate buffer compared with sodium phosphate and sodium acetate buffers) was “most stable”. The “Additional compounds (HPLC)” value [1, 11] was “little to no presence of additional compounds”, the Discoloration [1, 11] was “little to no discoloration” and the “% RBC lysis” value ([2]; 500 μL blood mixed with 500 μL sample (30 mg/mL AT2220 or 0.1% Triton X-100)) was 0.1%. For the same compound, the “Avg OD (n = 4)” value ([2]; 500 μL blood mixed with 500 μL sample, 30 mg/mL AT2220 dilution 1, 0.1% Triton X-100 dilution 100) was 0.0649.
